Test results taken from patent US10450275B2, “Compounds and methods for treating cancer, neurological disorders, ethanol withdrawal, anxiety, depression, and neuropathic pain” (Board of Regents, The University of Texas System, priority 2013, dated 2019).
Several values for one entry are separate records, joined by “and”; a condition that tells them apart may be missing. Equal values may be shown once. Read-outs that look alike come from different tables or passages of the source.

What was measured:
[1] = Blood brain barrier permeability / brain concentration and brain clearance of JJS-1-166 in mice; assay type: in vivo, C57Bl/6j mice; conditions: for brain exposure / concentration at 3 h: mouse; for concentration at 3 h: male, C57Bl/6j, brain, 10 mg/kg
Method: (§1) FIG. 1. Nine C57Bl/6j male mice (2-3 months old). Prior to PK evaluation, 3 animals were dosed with vehicle and were used to identify the standard curve using liquid chromatography-mass spectrometry (LC-MS) and as controls. Animals were randomized into 3 groups (n=3 per group). One group dosed Intravenously (IV), one group orally (PO), and one group subcutaneously (SC) with 10 mg/kg of the compound. From each animal blood will be collected 5 times: baseline (before the single dose); 5 minute; 30 minute; 1 hour; 3 hour after the single dose of the compound. (The first 4 collections are retro-orbital and the last one is terminal together with collection of the brain. Brain and blood will be flash frozen in liquid nitrogen and kept in −80° C. for later analysis. The concentration of compounds in the blood samples and brain tissues will be measured using LC-MS method.) FIG. 6. 3 day brain clearance study. A C57Bl/6j mouse was treated with 10 mg/kg JJS-1-166. After 3 days, the level of JJS-1-166 in the brain was assessed to ensure that all or a majority of the drug had been cleared. We determined the blood brain barrier (BBB) permeability and pharmacokinetic (PK) profile of JJS-1-166 (phase I), and subsequently investigated the efficacy of JJS-1-166 in an Alzheimer's disease (AD) mouse model. LC-MS/MS Method Development for Compound JJS-1-166 [table] [table]

[2] = as above; assay type: in vivo, C57Bl/6j mice; conditions: time point 24 h, individual animals
[3] = Pharmacokinetic profile of JJS-1-166 in mice (plasma, LC-MS); assay type: in vivo, C57Bl/6j mice; conditions: for bioavailability: relative to the area under the curve for IV administration
Method: as §1, with “From each animal blood will be collected 5 times: baseline (before the single dose); 5 minute; 30 minute; 1 hour; 3 hour after the single dose of the compound.” left out, “method.)” for “method.) FIG. 6. 3 day brain clearance study. A C57Bl/6j mouse was treated with 10 mg/kg JJS-1-166. After 3 days, the level of JJS-1-166 in the brain was assessed to ensure that all or a majority of the drug had been cleared.”

[4] = target: T1, human M1 muscarinic receptor (Homo sapiens, UniProt P11229); test: human M1 muscarinic receptor antagonist activity; assay type: cell-based; conditions: 3 μM
T1 sequence (P11229 1-460): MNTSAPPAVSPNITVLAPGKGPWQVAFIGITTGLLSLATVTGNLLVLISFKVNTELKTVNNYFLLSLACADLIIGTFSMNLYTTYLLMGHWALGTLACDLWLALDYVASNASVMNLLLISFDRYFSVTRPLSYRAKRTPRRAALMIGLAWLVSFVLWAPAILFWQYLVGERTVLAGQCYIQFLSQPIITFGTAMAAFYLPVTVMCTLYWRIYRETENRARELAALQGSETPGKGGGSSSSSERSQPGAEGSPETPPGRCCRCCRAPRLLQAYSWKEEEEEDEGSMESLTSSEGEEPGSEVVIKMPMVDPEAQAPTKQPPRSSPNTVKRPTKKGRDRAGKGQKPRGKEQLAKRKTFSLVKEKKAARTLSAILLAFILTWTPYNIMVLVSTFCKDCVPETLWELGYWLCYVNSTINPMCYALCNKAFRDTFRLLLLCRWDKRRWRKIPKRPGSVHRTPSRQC

[5] = target: fatty acid synthase (Homo sapiens, UniProt P49327); test: fatty acid synthase inhibition; assay type: biochemical; conditions: read-out: Potency, fatty acid synthase inhibitor
fatty acid synthase, sequence (P49327 whole entry): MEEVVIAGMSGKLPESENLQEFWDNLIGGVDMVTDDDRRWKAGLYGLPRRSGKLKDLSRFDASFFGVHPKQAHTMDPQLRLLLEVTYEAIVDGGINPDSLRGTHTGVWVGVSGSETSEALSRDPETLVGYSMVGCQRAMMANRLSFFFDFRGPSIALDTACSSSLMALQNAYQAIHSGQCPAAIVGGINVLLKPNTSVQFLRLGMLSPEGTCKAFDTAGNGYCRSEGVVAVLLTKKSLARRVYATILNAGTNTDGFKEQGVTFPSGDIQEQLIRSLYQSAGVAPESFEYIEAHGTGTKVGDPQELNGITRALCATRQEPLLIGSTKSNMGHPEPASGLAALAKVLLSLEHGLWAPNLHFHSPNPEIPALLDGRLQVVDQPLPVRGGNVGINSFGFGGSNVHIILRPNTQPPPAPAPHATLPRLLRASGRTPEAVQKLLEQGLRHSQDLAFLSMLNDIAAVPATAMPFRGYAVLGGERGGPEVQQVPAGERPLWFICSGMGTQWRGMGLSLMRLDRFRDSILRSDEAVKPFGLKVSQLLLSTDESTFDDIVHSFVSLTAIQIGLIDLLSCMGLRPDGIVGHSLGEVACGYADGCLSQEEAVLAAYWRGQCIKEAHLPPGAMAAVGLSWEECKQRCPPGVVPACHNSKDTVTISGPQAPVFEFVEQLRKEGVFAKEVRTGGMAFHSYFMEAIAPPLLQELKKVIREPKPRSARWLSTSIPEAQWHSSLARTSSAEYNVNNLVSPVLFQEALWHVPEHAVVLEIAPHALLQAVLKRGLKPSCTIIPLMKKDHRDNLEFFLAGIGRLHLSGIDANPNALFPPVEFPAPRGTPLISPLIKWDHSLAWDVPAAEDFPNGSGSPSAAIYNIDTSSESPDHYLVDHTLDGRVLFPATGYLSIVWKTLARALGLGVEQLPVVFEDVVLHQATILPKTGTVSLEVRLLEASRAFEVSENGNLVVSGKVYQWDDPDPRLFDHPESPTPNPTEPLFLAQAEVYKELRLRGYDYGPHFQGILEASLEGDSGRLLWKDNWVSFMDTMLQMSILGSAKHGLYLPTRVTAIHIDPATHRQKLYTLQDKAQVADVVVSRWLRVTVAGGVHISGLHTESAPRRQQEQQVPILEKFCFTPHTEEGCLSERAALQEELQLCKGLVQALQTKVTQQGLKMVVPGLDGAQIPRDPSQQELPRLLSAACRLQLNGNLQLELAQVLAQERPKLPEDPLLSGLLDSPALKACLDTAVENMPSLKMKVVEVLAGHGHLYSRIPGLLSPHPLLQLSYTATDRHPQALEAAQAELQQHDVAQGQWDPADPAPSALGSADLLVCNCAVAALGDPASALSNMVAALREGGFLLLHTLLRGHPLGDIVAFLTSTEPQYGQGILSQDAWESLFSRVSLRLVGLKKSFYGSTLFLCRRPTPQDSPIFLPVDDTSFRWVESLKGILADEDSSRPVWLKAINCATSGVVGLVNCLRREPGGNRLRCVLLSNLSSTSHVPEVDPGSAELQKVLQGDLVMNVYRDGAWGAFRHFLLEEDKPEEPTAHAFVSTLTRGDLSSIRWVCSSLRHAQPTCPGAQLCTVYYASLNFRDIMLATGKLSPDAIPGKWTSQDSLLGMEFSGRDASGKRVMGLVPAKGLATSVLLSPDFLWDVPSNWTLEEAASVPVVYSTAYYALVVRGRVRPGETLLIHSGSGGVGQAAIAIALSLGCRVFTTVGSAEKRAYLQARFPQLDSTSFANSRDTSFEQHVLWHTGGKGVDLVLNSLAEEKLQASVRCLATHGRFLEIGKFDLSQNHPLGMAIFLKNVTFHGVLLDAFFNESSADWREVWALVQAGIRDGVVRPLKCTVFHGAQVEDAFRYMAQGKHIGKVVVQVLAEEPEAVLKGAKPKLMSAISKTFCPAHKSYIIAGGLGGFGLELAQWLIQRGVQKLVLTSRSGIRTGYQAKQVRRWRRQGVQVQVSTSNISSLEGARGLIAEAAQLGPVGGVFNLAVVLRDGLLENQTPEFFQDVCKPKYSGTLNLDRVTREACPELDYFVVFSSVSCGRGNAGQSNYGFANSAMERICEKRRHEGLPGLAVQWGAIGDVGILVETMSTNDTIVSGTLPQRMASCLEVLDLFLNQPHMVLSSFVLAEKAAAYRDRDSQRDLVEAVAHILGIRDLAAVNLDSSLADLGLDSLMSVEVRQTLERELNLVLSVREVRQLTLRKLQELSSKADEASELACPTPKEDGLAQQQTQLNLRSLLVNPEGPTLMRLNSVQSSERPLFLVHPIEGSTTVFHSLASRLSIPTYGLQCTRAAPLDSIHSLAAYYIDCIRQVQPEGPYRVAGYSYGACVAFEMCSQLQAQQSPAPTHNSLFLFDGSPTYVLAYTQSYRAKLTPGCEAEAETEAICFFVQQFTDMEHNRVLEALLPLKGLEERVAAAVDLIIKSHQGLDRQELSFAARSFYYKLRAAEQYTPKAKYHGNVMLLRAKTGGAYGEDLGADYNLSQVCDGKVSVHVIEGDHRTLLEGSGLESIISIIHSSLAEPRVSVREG

[6] = target: T2, striatal-enriched protein tyrosine phosphatase (STEP) (Homo sapiens, UniProt P54829); test: striatal-enriched protein tyrosine phosphatase (STEP) inhibition; assay type: biochemical; conditions: read-out: Potency, striatal-enriched protein tyrosine phosphatase (STEP) inhibitor
T2 sequence (P54829 1-565): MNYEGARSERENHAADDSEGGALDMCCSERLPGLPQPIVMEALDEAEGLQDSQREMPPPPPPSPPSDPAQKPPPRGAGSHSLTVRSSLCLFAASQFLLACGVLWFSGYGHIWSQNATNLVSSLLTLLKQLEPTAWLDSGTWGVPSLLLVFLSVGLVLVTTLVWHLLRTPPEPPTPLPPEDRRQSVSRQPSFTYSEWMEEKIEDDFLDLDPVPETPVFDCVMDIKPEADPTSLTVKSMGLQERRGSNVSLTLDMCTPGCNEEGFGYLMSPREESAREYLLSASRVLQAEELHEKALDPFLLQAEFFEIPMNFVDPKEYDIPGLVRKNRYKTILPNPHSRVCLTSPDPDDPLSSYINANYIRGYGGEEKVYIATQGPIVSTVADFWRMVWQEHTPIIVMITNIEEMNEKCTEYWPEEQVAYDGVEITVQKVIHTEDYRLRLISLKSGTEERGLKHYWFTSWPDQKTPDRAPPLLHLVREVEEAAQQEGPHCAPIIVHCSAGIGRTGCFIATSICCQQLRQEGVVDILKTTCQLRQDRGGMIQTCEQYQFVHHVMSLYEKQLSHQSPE

[7] = target: T3, microphthalmia-associated transcription factor (MITF) (Homo sapiens, UniProt O75030); test: microphthalmia-associated transcription factor (MITF) activation; assay type: cell-based; conditions: read-out: Potency (AC40), microphthalmia-associated transcription factor (MITF) activator
T3 sequence (O75030 1-526): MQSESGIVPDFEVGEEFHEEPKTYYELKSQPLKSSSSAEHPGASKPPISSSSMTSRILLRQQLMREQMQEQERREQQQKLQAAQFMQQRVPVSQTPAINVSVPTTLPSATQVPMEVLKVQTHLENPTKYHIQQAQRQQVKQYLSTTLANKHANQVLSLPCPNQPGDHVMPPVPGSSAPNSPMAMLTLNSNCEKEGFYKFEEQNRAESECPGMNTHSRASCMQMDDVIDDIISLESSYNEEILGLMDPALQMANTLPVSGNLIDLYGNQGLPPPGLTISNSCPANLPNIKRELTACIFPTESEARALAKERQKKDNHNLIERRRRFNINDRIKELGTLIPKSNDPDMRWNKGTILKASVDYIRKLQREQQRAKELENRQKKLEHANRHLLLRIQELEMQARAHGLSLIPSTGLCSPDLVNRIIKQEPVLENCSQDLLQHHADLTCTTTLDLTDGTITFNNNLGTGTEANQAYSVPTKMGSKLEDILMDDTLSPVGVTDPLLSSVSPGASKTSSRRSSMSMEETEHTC

[8] = target: mycobacterium tuberculosis bioA enzyme (Mycobacterium tuberculosis, UniProt P9WQ81); test: mycobacterium tuberculosis bioA enzyme inhibition; assay type: biochemical; conditions: read-out: Potency, mycobacterium tuberculosis bioA enzyme inhibitor
mycobacterium tuberculosis bioA enzyme, sequence (P9WQ81 whole entry): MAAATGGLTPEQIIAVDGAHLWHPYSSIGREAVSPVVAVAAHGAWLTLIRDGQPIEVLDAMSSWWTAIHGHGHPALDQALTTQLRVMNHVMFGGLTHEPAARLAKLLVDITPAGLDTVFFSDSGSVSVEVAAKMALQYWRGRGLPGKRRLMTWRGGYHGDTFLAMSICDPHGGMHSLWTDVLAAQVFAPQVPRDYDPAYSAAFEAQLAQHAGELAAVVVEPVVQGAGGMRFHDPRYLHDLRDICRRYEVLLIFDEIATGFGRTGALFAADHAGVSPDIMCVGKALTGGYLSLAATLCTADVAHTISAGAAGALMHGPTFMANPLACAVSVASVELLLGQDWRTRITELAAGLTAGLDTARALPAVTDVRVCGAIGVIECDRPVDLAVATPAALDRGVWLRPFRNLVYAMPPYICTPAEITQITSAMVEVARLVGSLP

[9] = system: Y. pestis topoisomerase I; assay type: biochemical; conditions: 10 μM
[10] = target: serotonin 5A receptor (5HTR5A) (Homo sapiens, UniProt P47898); test: serotonin 5A receptor (5HTR5A) inverse agonist activity; assay type: cell-based; conditions: 9.3 μM
serotonin 5A receptor (5HTR5A), sequence (P47898 whole entry): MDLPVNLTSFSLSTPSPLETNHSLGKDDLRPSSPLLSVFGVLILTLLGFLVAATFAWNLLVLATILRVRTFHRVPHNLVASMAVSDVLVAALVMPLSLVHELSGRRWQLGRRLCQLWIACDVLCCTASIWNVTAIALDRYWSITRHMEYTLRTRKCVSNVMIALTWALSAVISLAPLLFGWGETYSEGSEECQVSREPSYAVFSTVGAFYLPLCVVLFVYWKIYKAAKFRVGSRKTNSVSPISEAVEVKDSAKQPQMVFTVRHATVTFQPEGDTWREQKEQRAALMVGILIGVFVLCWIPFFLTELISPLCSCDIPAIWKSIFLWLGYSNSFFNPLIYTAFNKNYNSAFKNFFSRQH

[11] = time point 3 h, individual animals
[12] = time point 72 h, individual animals

For CN1CCN(c2ccc3c(c2)[C@H]2CC3CCN2C(=O)OCc2ccccc2)CC1 [JJS-1-166], the brain exposure ([1]; SC administration, 3 hours) was “high level of brain exposure”, the concentration at 3 h ([1]; time point 3 h, individual animals, read-out: Drug concentration in the Brain) was 1570 ng/g and the concentration at 3 h ([1]; sc, 3 hours after subcutaneous (SC) administration, read-out: brain concentration) was 15 ng/mL. For the same compound, the brain exposure ([1]; overall statement) was “adequate brain exposure”, the “Drug concentration in the Brain” value [1, 11] was 1100.0 ng/g and 1840.0 ng/g and the “Drug concentration in the Brain” value [1, 12] was “No Peak”. The concentration at 24 h ([2]; C57Bl/6j, mouse, brain, 10 mg/kg, read-out: Drug concentration in the Brain) was 1.76 ng/g, the “Drug concentration in the Brain” value [2] was 1.63 ng/g and 1.28 ng/g and the concentration at 24 h ([3]; C57Bl/6j, mouse, plasma, time point 24 h, individual animals, read-out: Drug concentration in the Plasma) was 0.14 ng/g. The “plasma concentration (Cmax)” value ([3]; SC administration, 10 mg/kg, at 1 hour, mouse) was “greater than 300 ng/dL”, the “time for which detectable plasma levels were maintained” value ([3]; after SC, OP, and IV administration, mouse) was “greater than 150 minutes” and the “plasma concentration (Cmax)” value ([3]; intravenous (IV) administration, 10 mg/kg, at 5 minutes, mouse) was “greater than 1500 ng/dL”. For the same compound, the concentration at 3 h ([3]; male, C57Bl/6j, mouse, plasma, 10 mg/kg, time point 3 h, individual animals, read-out: Drug concentration in the Plasma) was 156 ng/g, the bioavailability ([3]; male, C57Bl/6j, plasma, oral, 10 mg/kg, mouse, read-out: OP bioavailability) was 7% and the bioavailability ([3]; male, C57Bl/6j, plasma, subcutaneous, 10 mg/kg, mouse, read-out: SC bioavailability) was 45%. The pharmacokinetic properties ([3]; mouse, overall statement) was “acceptable”, the “plasma concentration (Cmax)” value ([3]; oral (PO) administration, 10 mg/kg, at 30 min, mouse) was “greater than 60 ng/dL” and the “Drug concentration in the Plasma” value [3, 11] was 136.0 ng/g and 209.0 ng/g. The “Drug concentration in the Plasma” value ([3]; time point 24 h, individual animals) was 0.163 ng/g and 0.0913 ng/g and the “Drug concentration in the Plasma” value [3, 12] was “No Peak”.
For O=C(c1cc(Cl)cc(Cl)c1)N1CC[C@@H]2C[C@H]1c1cc(N3CCCCC3)ccc12, the “Potency, human M1 muscarinic receptor antagonist” value [4] was 69% (3 μM).
For COc1ccc(NC(=S)N2CCN(c3ccc4c(c3)[C@@H]3CCN(C(=O)OCc5ccccc5)[C@H]4C3)CC2)c(OC)c1, the inhibition at 15 µM [5] was 57%.
Compound N#Cc1ccc(C(=O)N2CC[C@@H]3C[C@H]2c2cc(-c4ccccc4)ccc23)cc1 has an inhibition at 20 µM [6] of 69%.
CCCCNc1ccc2c(c1)[C@@H]1C[C@H]2CCN1C(=O)OCc1ccccc1 gave an EC40 [7] of 3.3 µM.
Compound COc1ccc(-c2ccc3c(c2)[C@@H]2C[C@H]3CCN2)cc1 has an inhibition at 10 µM [8] of 91%.
With O=C(OCc1ccccc1)N1CC[C@@H]2C[C@H]1c1c(Cl)cccc12 the “Potency, Y. pestis topoisomerase I inhibitor” value [9] was 61% (10 μM).
For Clc1cccc(CN2CC[C@@H]3C[C@H]2c2cc(N4CCCCC4)ccc23)c1, the “Potency, serotonin 5A receptor (5HTR5A) inverse agonist” value [10] was 27% (9.3 μM).
With COc1ccc(S(=O)(=O)N2CC[C@@H]3C[C@H]2c2cc(N4CCOCC4)ccc23)cc1 (stereo in doubt) [30{2,2,30}, 4-(2-((4-Methoxyphenyl)sulfonyl)-2,3,4,5-tetrahydro-1H-1,5-methanobenzo[c]azepin-8-yl)morpholine] the melting point was 176 to 177 °C.
FC(F)(F)c1ccc(-c2ccc3c(c2)[C@@H]2C[C@H]3CCN2Cc2ccccc2)cc1 (stereo in doubt) [21{2,7}, 2-Benzyl-8-(4-(trifluoromethyl)phenyl)-2,3,4,5-tetrahydro-1H-1,5-methanobenzo[c]azepine] showed a melting point of 101 to 103 °C.
